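Five compound concentrations were applied to cells in 96-well plates for 48 hours; endpoints were derived by simple linear interpolation of the resulting dose-response curve. Definition used: TGI = concentration required for complete inhibition of growth.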
Key:
Assay in all cases: growth of human tumour cells (NCI), 48 h
SW-620 colon = tested on: SW-620 colon
DLD-1 colon = tested on: DLD-1 colon
SNB-75 CNS = tested on: SNB-75 CNS
SF-295 CNS = tested on: SF-295 CNS
U251 CNS = tested on: U251 CNS
CCRF-CEM leukemia = tested on: CCRF-CEM leukemia
HCT-116 colon = tested on: HCT-116 colon
SN12C renal = tested on: SN12C renal
K-562 leukemia = tested on: K-562 leukemia
CAKI-1 renal = tested on: CAKI-1 renal
NCI-H460 lung = tested on: NCI-H460 lung
KM20L2 colon = tested on: KM20L2 colon
A549 NSCLC = tested on: A549 NSCLC
RXF 393 renal = tested on: RXF 393 renal
UO-31 renal = tested on: UO-31 renal
DMS 114 small cell lung = tested on: DMS 114 small cell lung
KM12 colon = tested on: KM12 colon
SK-MEL-28 melanoma = tested on: SK-MEL-28 melanoma
SNB-19 CNS = tested on: SNB-19 CNS
MALME-3M melanoma = tested on: MALME-3M melanoma
OVCAR-8 ovarian = tested on: OVCAR-8 ovarian
M14 melanoma = tested on: M14 melanoma
SK-OV-3 ovarian = tested on: SK-OV-3 ovarian
LXFL 529 NSCLC = tested on: LXFL 529 NSCLC
HL-60(TB) leukemia = tested on: HL-60(TB) leukemia
HOP-92 NSCLC = tested on: HOP-92 NSCLC
MOLT-4 leukemia = tested on: MOLT-4 leukemia
XF 498 CNS = tested on: XF 498 CNS
SF-268 CNS = tested on: SF-268 CNS
SF-539 CNS = tested on: SF-539 CNS
HT29 colon = tested on: HT29 colon
M19-MEL melanoma = tested on: M19-MEL melanoma
COLO 205 colon = tested on: COLO 205 colon
SK-MEL-5 melanoma = tested on: SK-MEL-5 melanoma
786-0 renal = tested on: 786-0 renal
ACHN renal = tested on: ACHN renal
SR leukemia = tested on: SR leukemia
NCI-H226 lung = tested on: NCI-H226 lung
HCC-2998 colon = tested on: HCC-2998 colon
OVCAR-4 ovarian = tested on: OVCAR-4 ovarian
IGROV1 ovarian = tested on: IGROV1 ovarian
SK-MEL-2 melanoma = tested on: SK-MEL-2 melanoma
DMS 273 small cell lung = tested on: DMS 273 small cell lung
HOP-18 NSCLC = tested on: HOP-18 NSCLC
NCI-H23 lung = tested on: NCI-H23 lung
EKVX NSCLC = tested on: EKVX NSCLC
RPMI-8226 leukemia = tested on: RPMI-8226 leukemia
A498 renal = tested on: A498 renal
HCT-15 colon = tested on: HCT-15 colon
OVCAR-3 ovarian = tested on: OVCAR-3 ovarian
SNB-78 CNS = tested on: SNB-78 CNS
TK-10 renal = tested on: TK-10 renal
RXF-631 renal = tested on: RXF-631 renal
NCI-H522 lung = tested on: NCI-H522 lung
UACC-62 melanoma = tested on: UACC-62 melanoma
UACC-257 melanoma = tested on: UACC-257 melanoma
LOX IMVI melanoma = tested on: LOX IMVI melanoma
OVCAR-5 ovarian = tested on: OVCAR-5 ovarian
HOP-62 NSCLC = tested on: HOP-62 NSCLC

Measured: TGI

CN(C)N=Nc1cccc(C(N)=O)c1
not listed: RXF-631 renal | NCI-H522 lung | UACC-62 melanoma | UACC-257 melanoma | LOX IMVI melanoma | OVCAR-5 ovarian | HOP-62 NSCLC
> 100 µM: all other assays above

CCCCCCCCC(C)CCCCCCCCC(=O)OCC(COP(=O)([O-])OCC[N+](C)(C)C)OC(=O)CCCCCCCCC(C)CCCCCCCC (centres undefined)
not listed: XF 498 CNS | SF-539 CNS
> 100 µM: all other assays above

Source: PubChem BioAssay (NCI)
